Experimental data reported in patent US9506032B2, “Engineered biological pacemakers” (The United States of America, as represented by the …, priority 2009, dated 2016).

Experiments:
Assay type in all cases: cell-based, Mouse
saponin-skinned ESCs = experiment: Local Ca2+ releases (LCRs) in saponin-skinned ESCs, confocal line-scan Ca2+ imaging; conditions: for LCRs (effect of drug): skinned ESCs, 150 nmol/L free [Ca2+]
Text: (§1) Mouse ES cells of line R1 were differentiated into cardiac cells using the “hanging drop” technique. ESCs were isolated from in vitro-grown embryoid bodies by microdissection followed by collagenase treatment. […] At day 2, EBs were transferred into bacteriological petri dishes and cultured in suspension until day 5. […] Individual spontaneously beating ESCs were isolated by microdissection and collagenase treatment.
(§2) Fluo-4 measurements are presented in terms of F/F0 (normalized Ca^2+ signal). […] were analyzed by programs developed using Delfi-7 software. The duration and width of LCRs were measured as the time at half-maximal amplitude of the normalized signal.

[1] = system: spontaneously beating ESCs; experiment: Spontaneous action potentials and Ca2+ signals in intact spontaneously beating ESCs (patch clamp with confocal imaging); conditions: for LCRs (effect of intervention) / spontaneous AP firing and Ca2+ transients: intact spontaneously beating ESCs (FIG. 6)
Text: as §1
ESCs differentiated in vitro for 9 to 20 days after plating of 7 days old embryoid bodies were studied during continuous superfusion with solution containing in mmol/L: 140 NaCl, 5.4 KCl, 5 HEPES, 2 MgCl2, 1.8 CaCl2, 10 glucose, (pH adjusted to 7.4 with NaOH). Selection of the cells for patch-clamp technique was based on spontaneous beating. Action potentials were measured at physiological temperature (35±2° C.) with standard current-clamp technique (Axopatch 200, Axon Instruments, Foster City, Calif., USA), pCLAMP7 software was used for data acquisition and analysis (Axon Instruments). Perforated patch-clamp technique was performed with β-escin added to the electrode solution. Patch pipette solution contained in mmol/L: 120 K-gluconate, 5 NaCl, 5 Mg-ATP, 5 HEPES, 20 KCl, 3 Na2ATP (pH adjusted to 7.2 with NaOH). […] Patch pipette filling solution contained (in mmol/L) 120 CsCl, 10 NaCl, 20 tetraethylammonium chloride, 5 MgATP, and 20 HEPES (pH 7.2 adjusted with CsOH), and 100 μmol/L fluo-4 pentapotassium salt (Molecular Probes). Four conditioning pulses of 100 ms and 0 mV were delivered at 1.0 Hz prior to each test voltage pulse to load the SR with Ca^2+.
In whole cell configuration, fluo-4 was added directly to the pipette solution.
as §2

[2] = system: Na+/Ca2+ exchanger (NCX) current in ESCs; experiment: Inward NCX current spikes in ESCs voltage-clamped at -50 mV; conditions: voltage clamp −50 mV, Na+ substituted by Li+ inhibiting NCX; 10 to 20 pA in control
Method: ESCs differentiated in vitro for 9 to 20 days after plating of 7 days old embryoid bodies were studied during continuous superfusion with solution containing in mmol/L: 140 NaCl, 5.4 KCl, 5 HEPES, 2 MgCl2, 1.8 CaCl2, 10 glucose, (pH adjusted to 7.4 with NaOH). Selection of the cells for patch-clamp technique was based on spontaneous beating. Action potentials were measured at physiological temperature (35±2° C.) with standard current-clamp technique (Axopatch 200, Axon Instruments, Foster City, Calif., USA), pCLAMP7 software was used for data acquisition and analysis (Axon Instruments). Perforated patch-clamp technique was performed with β-escin added to the electrode solution. Patch pipette solution contained in mmol/L: 120 K-gluconate, 5 NaCl, 5 Mg-ATP, 5 HEPES, 20 KCl, 3 Na2ATP (pH adjusted to 7.2 with NaOH). Recording of L-type Ca^2+ current (ICaL) simultaneously with Ca^2+ signal imaging (see Example 3) were performed under whole cell voltage clamp. […]
When activation of ion channels and APs are disabled by voltage clamp at −50 mV, spontaneous LCRS for at least 5 s were observed (FIG. 4, Panel A). […] It was determined under the voltage clamp whether LCRs can cause the current spikes via NCX activation. […]

ryanodine
LCRs (effect of drug) (saponin-skinned ESCs; 10 μmol/L drug): inhibited
LCRs (effect of intervention) [1]: inhibited
spontaneous AP firing and Ca2+ transients [1]: became irregular, culminating in cessation of automaticity or in extremely rare and irregular beating

CC(=O)OCOC(=O)CN(CC(=O)OCOC(C)=O)c1ccccc1OCCOc1ccccc1N(CC(=O)OCOC(C)=O)CC(=O)OCOC(C)=O [BAPTA-AM]
LCRs (effect of intervention) [1]: inhibited
spontaneous AP firing and Ca2+ transients [1]: became irregular, culminating in cessation of automaticity or in extremely rare and irregular beating

C/C=C(/C)C(=O)O[C@H]1C(C)=C2[C@H]([C@@H]1OC(=O)CCCCCCC)[C@@](C)(OC(C)=O)C[C@H](OC(=O)CCC)[C@@]1(O)[C@H]2OC(=O)[C@@]1(C)O [thapsigargin]
LCRs (effect of drug) (saponin-skinned ESCs; 10 μmol/L drug): inhibited
LCRs (effect of intervention) [1]: inhibited
spontaneous AP firing and Ca2+ transients [1]: became irregular, culminating in cessation of automaticity or in extremely rare and irregular beating

[Li+] [Li^+]
spontaneous excitation (APs) ([1]; Na+-free lithium solution applied ~1 s, zero-current clamp, rhythmic LCRs continued): excitation failure
high-amplitude inward current spikes [2]: disappeared

O=S(=O)(NCCNC/C=C/c1ccc(Br)cc1)c1cccc2cnccc12 [H89]
APs / automaticity on PKA inhibition ([1]; spontaneously beating ESCs, 10 μmol/L): irregUlar APs or cessation of automaticity

Nc1ncnc2c1ncn2[C@@H]1O[C@@H]2COP(=O)(O)O[C@H]2[C@H]1O [cAMP, cyclic AMP]
local Ca2+ oscillators (saponin-skinned ESCs; saponin-skinned ESCs, stimulation with 20 μmol/L cAMP): emergence of new local Ca^2+ oscillators in many cell locations

CCCCNc1ccc(C(=O)OCCN(C)C)cc1 [tetracaine]
LCRs (effect of drug) (saponin-skinned ESCs; 1 mmol/L drug): inhibited

Nc1ncnc2c1nc(Sc1ccc(Cl)cc1)n2[C@@H]1O[C@@H]2COP(=O)(O)O[C@H]2[C@H]1O [CPT-cAMP]
cycle length (CL) variability index (100%×CL standard deviation/CL mean) ([1]; cells with irregular beating, after 300 μmol/L CPT-cAMP, before 23.98+/−4.82%, P<0.05): 11.23+/−2.68%
rhythmicity of beating ([1]; irregularly beating ESCs, 300 μmol/L CPT-cAMP): converted irregularly beating ESCs to rhythmic pacemakers
